Test results taken from patent publication US9067920B2, “Compounds useful for inhibiting Chk1” (Eli Lilly and Company, priority 2010, dated 2015).
Structures can show the parent of a compound that is named as a salt.

Columns and labels:
[1] = tested on: HeLa cells; assay: Doxorubicin-induced G2M checkpoint abrogation HeLa cell-based Acumen assay (pHH3); details: 125 nM doxorubicin, 7 h compound
Method: An inhibitor of Chk1 will disable the G2M DNA damage checkpoint in p53-minus tumor cells treated with the topoisomerase II inhibitor, doxorubicin. A measurement of G2M checkpoint abrogation is the phosphorylation of histone H3 on serine 10 that occurs after cells traverse the G2M checkpoint and enter mitosis. The following high content imaging assay can be used to measure the phosphorylation histone H3 in cells. HeLa cells are cultured in MEM Media supplemented with 10% (v/v) FBS and plated at 2000 cells per well in poly D-lysine coated clear bottom black plates, 100 μL volume per well. Plates are then incubated in a cell culture incubator for 18-24 h (37° C., 5% CO2 and 95% relative humidity), Following the initial incubation, 20 μL of MEM Media plus 10% FBS containing […] doxorubicin are added to the appropriate wells of the plates resulting in a final concentration of 125 nM. The plates are returned to the incubator for 24 h, sufficient to arrest the cells at the G2M checkpoint. The next day the cells are treated 1.0 with compounds. Compounds are solubilized at […] in 100% DMSO and then diluted to a 10× stock starting at 50 μM in MEM plus 4% (v/v) DMSO. Subsequently, serial dilutions of the compounds (1:2) are prepared over a 50 μM to 0.39 μM range. Thirteen μL of compound stock is added to the appropriate wells in the plate to produce a final DMSO concentration of 0.4% and a final compound concentration range between 5 and 0.039 μM. […] Plates are scanned with ACUMEN EXPLORER™ Laser-scanning fluorescence microplate cytometers using 488 nm excitation (TTP LABTECH LTC) to measure pHH3 and DNA content including 2N, and 4N, The pHH3 positive cells are identified by mean intensity at 519 nm from Alexa 488. […] The final readout for each population is determined by normalizing to the % of total cells producing a final assay output of % pHH3, % 2N, and % 4N. 100% activity is then determined by treating cells with the maximum concentration of an inhibitor control compound at 100 nM to determine the final % activity of each compound. […]

[2] = target: recombinant Chk2 protein kinase (Homo sapiens, UniProt O96017); assay: Chk2 biochemical assay (CHK2/substrate peptide filter binding); details: 60 μM ATP, 1.4 nM Chk2 enzyme
Sequence of recombinant Chk2 protein kinase (O96017 whole entry, the tested form may be a part): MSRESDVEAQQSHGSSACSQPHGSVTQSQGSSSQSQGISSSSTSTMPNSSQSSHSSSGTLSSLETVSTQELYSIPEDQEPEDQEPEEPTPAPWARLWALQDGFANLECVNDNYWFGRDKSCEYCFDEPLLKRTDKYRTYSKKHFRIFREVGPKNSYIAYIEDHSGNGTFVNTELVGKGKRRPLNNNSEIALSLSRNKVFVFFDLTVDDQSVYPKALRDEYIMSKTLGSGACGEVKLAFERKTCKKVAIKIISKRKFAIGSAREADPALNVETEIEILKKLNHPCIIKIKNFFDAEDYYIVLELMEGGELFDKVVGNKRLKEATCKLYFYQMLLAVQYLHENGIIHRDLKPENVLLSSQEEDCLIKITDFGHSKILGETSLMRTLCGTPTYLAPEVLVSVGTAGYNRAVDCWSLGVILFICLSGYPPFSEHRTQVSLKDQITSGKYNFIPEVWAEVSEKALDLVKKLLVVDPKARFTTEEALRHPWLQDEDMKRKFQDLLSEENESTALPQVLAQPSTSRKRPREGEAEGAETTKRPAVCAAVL
Method: The effect of compounds on Chk2 biochemical activity can be determined using a CHK2/substrate peptide filter binding assay. In this assay, a synthetic peptide based on the amino acid sequence residues 206-225 of Cdc25C, is used as a phospho-acceptor substrate for recombinant Chk2 protein kinase. Using γ-^33P-ATP as the phospho-donor substrate, Chk2 transfers the radioactive γ-^33phosphate group to the synthetic peptide. The reaction is measured by capturing the peptide substrate on a cation exchange paper filter plate and scintillation counting of emitted beta particles.
The kinase reactions (40 μL reaction volumes) are performed in 96-well V-bottom polystyrene plates. Reactions are initiated with the addition of Chk2 enzyme. […]
Following Chk2 enzyme addition, the reactions are incubated at room temperature for 90 min, and then terminated with the addition of 140 μL of phosphoric acid. […] After sitting for 4 h at room temperature, the radioactivity in the plate is measured using a MicroBeta Trilux microplate scintillation counter (Perkin Elmer).
For IC50 determination, the percent inhibition for each concentration is calculated using the […] from controls run on each plate. […] Absolute IC50 values are calculated from the resulting curve. […]

[3] = tested on: HT-29 colon carcinoma cells; assay: ECtfs (two-fold sensitization) assay, gemcitabine potentiation, MTS; type: cell-based; details: Homo sapiens, HT-29 cells
Method: An inhibitor of Chk1 can potentiate the anti-proliferative activity of gemcitabine (or other cytotoxics) through abrogation of the intra-S phase checkpoint, resulting in sustained and increased DNA damage. The capacity for continued tumor cell proliferation after DNA damage can be analyzed by determining the ability of cells to replicate their DNA. […] In this assay, cells are treated with a dilution series of gemcitabine, and then 22 h later with the compound of Example 3, After an additional 44 h, the relative cell number is assessed by a MTS (3-(4,5-dimethylthiazol-2-yl)-5-(3-carboxymethoxyphenyl)-2-(4-sulfophenyl)-2H-tetrazolium) dye reduction assay. The ECtfs parameter is a measure of the concentration of a Chk1 inhibitor necessary to reduce by half the (1190 concentration of gemcitabine, measured in this assay in the absence of Chk1 inhibition. HT-29 cells (obtained from ATCC), are grown in RPMI 1640 plus 10% (v/v) heat inactivated FBS, The cells are plated at 2.5×10^3 per well, in a volume of 100 μL on 96-well tissue culture plates and incubated for 24 h. Gemcitabine dilutions are prepared at 6× concentrations in McCoy's 5A medium (modified) (1×) and added to wells at 20 μper well. Gemcitabine dilutions were set up with the highest final concentration of gemcitabine being 1.0 μM and dilutions made by three-fold steps to 0.5 nM.
Chk1 Inhibitor is prepared by dilutions in DMSO to 4000× final concentration, and then diluted 666-fold into McCoy's medium to generate 6× stocks. Chk1 inhibitor dilutions proceed by 2.5-fold steps starting at 25 nM down to 0.3 nM. Twenty-two hours 1.0 after gemcitabine addition, Chk1, inhibitor is added in a volume of 24 μL to wells containing 120 μL of medium plus gemcitabine. Each gemcitabine dilution receives a single Chk1 inhibitor dilution. Control wells received DMSO, gemcitabine, or Chk1 inhibitor alone. Forty-four hours after addition of Chk1 inhibitor, 30 μL of CellTiter 96® AQueous assay reagent, is added to each well and held at room temperature for 1 hour and 45 minutes. Absorbance is read on a SpectraMax 250 (Molecular Devices) spectrophotometer at 490 nm. Data from the SpectraMax spectrophotometer are analyzed with GraphPad Prism 4.0. First, an averaged no cell control absorbance is subtracted from all other values in the matrix of data from each plate. Next, duplicate data points are averaged. Data are normalized for each Chk1 inhibitor concentration, with 0% cell number set as corrected A490=0, and 100% cell number set as the 0 nM gemcitabine mean value. […] Gemcitabine concentrations are converted to log concentrations, and normalized cell number values are converted to percent inhibition (percent inhibition=1.00-normalized value). Transformed data are plotted, and a non-linear regression is run to estimate an IC50 value for gemcitabine at each Chk1 inhibitor concentration. The nonlinear regression is calculated allowing the slope to vary, and without constraints for the top or bottom of the dose-response curves. The ECtfs value is calculated as follows: GI50 values for gemcitabine for each Chk1 inhibitor concentration are determined, plotted, and the concentration of Chk1 inhibitor necessary to decrease the gemcitabine alone GI50 by two-fold is determined by interpolation.
Compounds within the scope of the invention are tested in this assay run substantially as above. For example, the compound of Example 3 is tested and found to have an ECtfs value of 1.0 nM (SE=0.1, n=3). […]

[4] = tested on: HT-29 colon tumor xenograft; assay: HT-29 tumor xenograft model, oral administration of Chk1 inhibitor; type: in vivo, nude mice; details: HT29, gemcitabine 40 mpk ip alone
Method: (§1) The ability of Chk1 inhibitors to potentiate tumor killing by DNA damaging agents can be determined in vivo using the Calu-6 lung and HT-29 colon tumor xenograft efficacy models. Calu-6 lung cancer cells are cultured in growth media (MEM with Earle's Balanced Salt Solution with L-glutamine supplemented with 10% (v/v) heat inactivated FBS, 1×MEM non-essential amino acids, 1× sodium pyruvate) and HT-29 colon cancer cells (ATCC) are cultured in growth media, (McCoy's 5A medium supplemented with 10% FBS) and expanded.
(§2) Cells are harvested and washed twice with phosphate buffered saline and 5×10^6 cells (HT-29) or 1×10^6 a cells (Calu-6) in growth media (without serum) are mixed with equal volume of BD Matrigel™ matrix, then injected subcutaneously into the flank of nude mice (CD-1 nu/nu).
(§3) At about day 16 after implant (150-200 mm^3), gemcitabine is formulated fresh in saline daily and administered to animals by intraperitoneal route at 40 mg/kg dose. Twenty four hours later animals are administered Chk1 compound, in 0.2% Tween-80/0.5% methylcellulose by the oral route MD. After three days of rest, dosing was repeated for three additional cycles (Q5Dx4 with the compound of Example 3 offset+24 hours). Tumor growth inhibition (TGI) is calculated as described in the previous paragraph. Compounds within the scope of the invention are tested in this assay run substantially as above.

[5] = tested on: HT-29 colon tumor xenograft; assay: HT-29 tumor xenograft model, subcutaneous administration of Chk1 inhibitor; type: in vivo, nude mice; details: HT29, gemcitabine 60 mpk ip alone
Method: as §1, §2
(§4) At about day 16 after implant ([…]), gemcitabine is formulated fresh in saline daily and administered to animals by intraperitoneal route at 60 mg/kg dose. Twenty four hours later animals are administered the compound of Example 3, in 0.2% Tween-80/0.5% methylcellulose subcutaneously BID. After […], dosing is repeated for three additional cycles (Q4Dx4 with the compound of Example 3 offset+24 hours), Tumor growth inhibition (TGI) is calculated as the percent reduction in mean tumor size of a compound treated group from the mean tumor size of the vehicle-treated control group. Compounds within the scope of the invention are tested in this assay run substantially as above.

[6] = tested on: Calu-6 lung tumor xenograft; assay: Calu-6 tumor xenograft model, subcutaneous administration of Chk1 inhibitor; type: in vivo, nude mice; details: Calu 6, gemcitabine 60 mpk ip alone
Method: as §1, §2, §4

[7] = tested on: Calu-6 lung tumor xenograft; assay: Calu-6 tumor xenograft model, oral administration of Chk1 inhibitor; type: in vivo, nude mice; details: Calu6, gemcitabine 40 mpk ip alone
Method: as §1, §2, §3

EC50 [1] | IC50 [2] | SMILES | IC50 ([3]; [Example 3] 0 nM) | EC50 ([3]; gemcitabine alone) | % TGI at day 50 [4] | % TGI at day 38 [5] | % TGI at day 47 [6] | % TGI at day 37 [7]
33 nM | 12 nM | COc1nc(C)ccc1-c1cc(Nc2cncc(O[C@@H]3CCCNC3)n2)[nH]n1 [Example 2, (R)-[5-(2-Methoxy-6-mcethyl-pyridin-3-yl)-2H-pyrazol-3-yl]-[6-(piperidin-3-yloxy)-pyrazin-2-yl]-amine methane sulfonic acid salt] |  |  |  |  |  | 
 |  | Nc1ccn([C@@H]2O[C@H](CO)[C@@H](O)C2(F)F)c(=O)n1 [Gemcitabine, gemcitabine, reference compound] | 22 nM | 22 nM | 25% | 11% | −41% | 32%
